Laboratory results published in patent publication US6737383B1, “Herbicidal oxadiazolidines” (priority 1999, dated 2004).

Assays:
surinam grass = assay: Test B pre/postemergence surinam grass; type: in vivo, Brachiaria decumbens
Procedure, shortened: (§1)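 Test chemicals in a non-phytotoxic solvent mixture with surfactant were sprayed preemergence onto planted seeds and postemergence onto plants 2 to 18 cm tall (1- to 4-leaf stage). After twelve to sixteen days in a greenhouse, injury was visually rated against untreated controls from 0 (no effect) to 10 (complete control).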

giant foxtail = assay: Test B pre/postemergence giant foxtail; type: in vivo, Setaria faberii
Procedure, shortened: as §1

corn = assay: Test B pre/postemergence corn; type: in vivo, Zea mays
Procedure, shortened: as §1

wheat = assay: Test B pre/postemergence wheat; type: in vivo, Triticum aestivum
Procedure, shortened: as §1

bedstraw = assay: Test B pre/postemergence bedstraw; type: in vivo, Galium aparine
Procedure, shortened: as §1

rape = assay: Test B pre/postemergence rape; type: in vivo, Brassica napus
Procedure, shortened: as §1

crabgrass = assay: Test B pre/postemergence crabgrass; type: in vivo, Digitaria sanguinalis
Procedure, shortened: as §1

cocklebur = assay: Test B pre/postemergence cocklebur; type: in vivo, Xanthium strumarium
Procedure, shortened: as §1

morningglory = assay: Test B pre/postemergence morningglory; type: in vivo, Ipomoea hederacea
Procedure, shortened: as §1

sugar beet = assay: Test B pre/postemergence sugar beet; type: in vivo, Beta vulgaris
Procedure, shortened: as §1

velvetleaf = assay: Test B pre/postemergence velvetleaf; type: in vivo, Abutilon theophrasti
Procedure, shortened: as §1

pigweed = assay: Test B pre/postemergence pigweed; type: in vivo, Amaranthus retroflexus
Procedure, shortened: as §1

soybean = assay: Test B pre/postemergence soybean; type: in vivo, Glycine max
Procedure, shortened: as §1

wild oat = assay: Test B pre/postemergence wild oat; type: in vivo, Avena fatua
Procedure, shortened: as §1

blackgrass = assay: Test B pre/postemergence blackgrass; type: in vivo, Alopecurus myosuroides
Procedure, shortened: as §1

purple nutsedge = assay: Test B pre/postemergence purple nutsedge; type: in vivo, Cyperus rotundus
Procedure, shortened: as §1

[1] = Postemergence, Rate 125 g/ha, scale of 0 to 10 where 0 is no effect and 10 is complete control
[2] = Preemergence, Rate 62 g/ha, scale 0 to 10 (0 no effect, 10 complete control)
[3] = Preemergence, Rate 125 g/ha, 0 is no effect, 10 is complete control
[4] = Preemergence, Rate 250 g/ha, scale 0 to 10, 0 is no effect, 10 is complete control
[5] = Preemergence, Rate 500 g/ha, scale 0 to 10 (0 no effect, 10 complete control)
[6] = Rate 62 g/ha, Postemergence, scale of 0 to 10 where 0 is no effect and 10 is complete control
[7] = Rate 250 g/ha, Postemergence, scale 0 to 10, 0 is no effect, 10 is complete control
[8] = Rate 500 g/ha, Postemergence, scale 0 to 10

SMILES: CC(C)N(C(=O)n1oc(=O)n(C(C)c2ccccc2)c1=O)c1ccc(Cl)cc1 (centres unmarked) [Compound 133]
- B. signalgrass plant response rating (surinam grass; [1]): 0
- B. signalgrass plant response rating (surinam grass; [2]): 0
- B. signalgrass plant response rating (0 to 10 scale) (surinam grass; [3]): 5
- B. signalgrass plant response rating (surinam grass; [4]): 5
- B. signalgrass plant response rating (surinam grass; [5]): 7
- B. signalgrass plant response rating (surinam grass; [6]): 0
- Plant response rating, B. signalgrass (surinam grass; [7]): 2
- B. signalgrass plant response rating (surinam grass; Rate 500 g/ha, Postemergence, scale of 0 to 10 where 0 is no effect and 10 is complete control): 2
- Giant foxtail plant response rating (giant foxtail; [1]): 2
- Giant foxtail plant response rating (giant foxtail; [2]): 3
- Giant foxtail plant response rating (0 to 10 scale) (giant foxtail; [3]): 7
- Giant foxtail plant response rating (giant foxtail; [4]): 9
- Giant foxtail plant response rating (giant foxtail; [5]): 10
- Giant foxtail plant response rating (giant foxtail; [6]): 0
- Plant response rating, Giant foxtail (giant foxtail; [7]): 3
- Giant foxtail plant response rating (giant foxtail; [8]): 4
- Corn plant response rating (corn; [1]): 0
- Corn plant response rating (corn; [2]): 0
- Corn plant response rating (0 to 10 scale) (corn; [3]): 0
- Corn plant response rating (corn; [4]): 0
- Corn plant response rating (corn; [5]): 0
- Corn plant response rating (corn; [6]): 0
- Plant response rating, Corn (corn; [7]): 0
- Corn plant response rating (corn; [8]): 0
- Wheat plant response rating (wheat; [1]): 0
- Wheat plant response rating (wheat; [2]): 0
- Wheat plant response rating (0 to 10 scale) (wheat; [3]): 0
- Wheat plant response rating (wheat; [4]): 0
- Wheat plant response rating (wheat; [5]): 0
- Wheat plant response rating (wheat; [6]): 0
- Plant response rating, Wheat (wheat; [7]): 0
- Wheat plant response rating (wheat; [8]): 2
- Bedstraw plant response rating (bedstraw; [1]): 4
- Bedstraw plant response rating (bedstraw; [2]): 0
- Bedstraw plant response rating (0 to 10 scale) (bedstraw; [3]): 0
- Bedstraw plant response rating (bedstraw; [4]): 0
- Bedstraw plant response rating (bedstraw; [5]): 0
- Bedstraw plant response rating (bedstraw; [6]): 0
- Plant response rating, Bedstraw (bedstraw; [7]): 7
- Bedstraw plant response rating (bedstraw; Rate 500 g/ha, Postemergence, scale 0 to 10, 0 no effect, 10 complete control): 7
- Rape plant response rating (rape; [1]): 0
- Rape plant response rating (rape; [2]): 0
- Rape plant response rating (0 to 10 scale) (rape; [3]): 0
- Rape plant response rating (rape; [4]): 0
- Rape plant response rating (rape; [5]): 2
- Rape plant response rating (rape; [6]): 0
- Plant response rating, Rape (rape; [7]): 0
- Rape plant response rating (rape; [8]): 0
- Crabgrass plant response rating (crabgrass; [1]): 2
- Crabgrass plant response rating (crabgrass; [2]): 1
- Crabgrass plant response rating (0 to 10 scale) (crabgrass; [3]): 3
- Crabgrass plant response rating (crabgrass; [4]): 5
- Crabgrass plant response rating (crabgrass; [5]): 5
- Crabgrass plant response rating (crabgrass; [6]): 0
- Plant response rating, Crabgrass (crabgrass; [7]): 4
- Crabgrass plant response rating (crabgrass; [8]): 4
- Cocklebur plant response rating (cocklebur; [1]): 2
- Cocklebur plant response rating (cocklebur; [2]): 0
- Cocklebur plant response rating (0 to 10 scale) (cocklebur; [3]): 0
- Cocklebur plant response rating (cocklebur; [4]): 0
- Cocklebur plant response rating (cocklebur; [5]): 2
- Cocklebur plant response rating (cocklebur; [6]): 2
- Plant response rating, Cocklebur (cocklebur; [7]): 2
- Cocklebur plant response rating (cocklebur; [8]): 3
- Morningglory plant response rating (morningglory; [1]): 3
- Morningglory plant response rating (morningglory; [2]): 0
- Morningglory plant response rating (0 to 10 scale) (morningglory; [3]): 0
- Morningglory plant response rating (morningglory; [4]): 0
- Morningglory plant response rating (morningglory; [5]): 0
- Morningglory plant response rating (morningglory; [6]): 2
- Plant response rating, Morningglory (morningglory; [7]): 4
- Morningglory plant response rating (morningglory; [8]): 8
- Sugarbeets plant response rating (sugar beet; [1]): 0
- Sugarbeets plant response rating (sugar beet; [2]): 0
- Sugarbeets plant response rating (0 to 10 scale) (sugar beet; [3]): 2
- Sugarbeets plant response rating (sugar beet; [4]): 3
- Sugarbeets plant response rating (sugar beet; [5]): 5
- Sugarbeets plant response rating (sugar beet; [6]): 0
- Plant response rating, Sugarbeets (sugar beet; [7]): 0
- Sugarbeets plant response rating (sugar beet; [8]): 2
- Velvetleaf plant response rating (velvetleaf; [1]): 0
- Velvetleaf plant response rating (velvetleaf; [2]): 0
- Velvetleaf plant response rating (0 to 10 scale) (velvetleaf; [3]): 0
- Velvetleaf plant response rating (velvetleaf; [4]): 2
- Velvetleaf plant response rating (velvetleaf; [5]): 2
- Velvetleaf plant response rating (velvetleaf; [6]): 0
- Plant response rating, Velvetleaf (velvetleaf; [7]): 2
- Velvetleaf plant response rating (velvetleaf; [8]): 5
- Redroot pigweed plant response rating (pigweed; [1]): 0
- Redroot pigweed plant response rating (pigweed; [2]): 0
- Redroot pigweed plant response rating (0 to 10 scale) (pigweed; [3]): 0
- Redroot pigweed plant response rating (pigweed; [4]): 0
- Redroot pigweed plant response rating (pigweed; [5]): 3
- Redroot pigweed plant response rating (pigweed; [6]): 0
- Plant response rating, Redroot pigweed (pigweed; [7]): 0
- Redroot pigweed plant response rating (pigweed; [8]): 2
- Soybean plant response rating (soybean; [1]): 3
- Soybean plant response rating (soybean; [2]): 0
- Soybean plant response rating (0 to 10 scale) (soybean; [3]): 0
- Soybean plant response rating (soybean; [4]): 0
- Soybean plant response rating (soybean; [5]): 0
- Soybean plant response rating (soybean; [6]): 1
- Plant response rating, Soybean (soybean; [7]): 3
- Soybean plant response rating (soybean; [8]): 3
- Wild oats plant response rating (wild oat; [1]): 0
- Wild oats plant response rating (wild oat; [2]): 0
- Wild oats plant response rating (0 to 10 scale) (wild oat; [3]): 2
- Wild oats plant response rating (wild oat; [4]): 2
- Wild oats plant response rating (wild oat; [5]): 4
- Wild oats plant response rating (wild oat; [6]): 0
- Plant response rating, Wild oats (wild oat; [7]): 0
- Wild oats plant response rating (wild oat; [8]): 0
- Blackgrass plant response rating (blackgrass; [1]): 2
- Blackgrass plant response rating (blackgrass; [2]): 3
- Blackgrass plant response rating (0 to 10 scale) (blackgrass; [3]): 3
- Blackgrass plant response rating (blackgrass; [4]): 3
- Blackgrass plant response rating (blackgrass; [5]): 5
- Blackgrass plant response rating (blackgrass; [6]): 0
- Plant response rating, Blackgrass (blackgrass; [7]): 2
- Blackgrass plant response rating (blackgrass; [8]): 4
- Nutsedge plant response rating (purple nutsedge; [1]): 0
- Nutsedge plant response rating (purple nutsedge; [2]): 0
- Nutsedge plant response rating (0 to 10 scale) (purple nutsedge; [3]): 0
- Nutsedge plant response rating (purple nutsedge; [4]): 0
- Nutsedge plant response rating (purple nutsedge; [5]): 0
- Nutsedge plant response rating (purple nutsedge; [6]): 0
- Plant response rating, Nutsedge (purple nutsedge; [7]): 0
- Nutsedge plant response rating (purple nutsedge; [8]): 0
